According to patent US11641858B2, “Agricultural chemicals” (Redag Crop Protection Ltd, priority 2016, dated 2023):
Where two headings read alike, the source gives them in different places. Values belong to the molecule of their own block, whether it stands above or below them.

Assays:
Phytophthora cinnamomi = assay: Amended agar assay (potato dextrose agar), reduction in colony growth; type: cell-based; details: read-out: Phytophthora cinnamomi (EC50)
Description: (§1) Testing was carried out on potato dextrose agar (PDA) amended with each compound at test concentrations of 20, 4 and 0.8, 0.16 and 0.032 ppm. Amended agar at each test concentration was poured into three replicate 9 cm petri dishes. Each replicate dish was inoculated in the centre with a 5 mm agar plug taken from the leading edge of a culture aged between 2 and 7 days old; the age of the culture was dependant on the growth rate of the pathogen being tested. The test pathogens were Pythium ultimum and Phytophthora cinnamomi. Plates were incubated at 18° C. and the diameter of each colony measured before growth on the fastest growing plate reached the plate edge. This varied between 2 and 7 days depending on the growth rate of test pathogens. The % reduction in colony growth compared to the control was calculated for each test concentration and pathogen combination.
(§2) The results are shown in Table 1 in which * represents an average control of up to 50% at said dosage; ** represents an average control of 50% or greater but less than 80% at said dosage; and *** represents an average control of 80% or greater at said dosage.
(§3) A primary screen was also conducted for a number of other compounds of the invention. The screen was conducted at 20 ppm and the results are provided in Table 2, in which D represents no control detected at this concentration; C represents up to 50% control; B from 50 to 99% control; and A represents a control of greater than 99%.
(§4) Alternatively, or in addition, the same assay was conducted at descending test concentrations with 5-fold dilutions typically down to 0.032 ppm, and an EC50 (the concentration at which 50% control would be achieved) was determined. The results are provided in Table 1 in which G represents an EC50 above 20 ppm, F represents an EC50 of 2-20 ppm and E represents and EC50 less than 2 ppm.

Pythium ultimum = assay: as above; type: cell-based; details: Globisporangium ultimum, read-out: Pythium ultimum (EC50)
Description: as §1, §2, §3, §4

[1] = descending test concentrations, 5-fold dilutions typically down to 0.032 ppm

EC50 (Phytophthora cinnamomi; [1]): < 2 µg/mL
EC50 (Pythium ultimum; [1]): < 2 µg/mL
SMILES: CCCCOC(=O)Nc1cccc(COc2nc3ccccc3n2-c2nnnn2C)n1 [Example 13]

EC50 (Phytophthora cinnamomi; [1]): < 2 µg/mL
EC50 (Pythium ultimum; [1]): < 2 µg/mL
SMILES: CCCCCOC(=O)Nc1cccc(COc2nc3ccccc3n2-c2nnnn2C)n1 [Example 16]

EC50 (Phytophthora cinnamomi; [1]): < 2 µg/mL
EC50 (Pythium ultimum; [1]): < 2 µg/mL
SMILES: COCCOC(=O)Nc1cccc(COc2nc3ccccc3n2-c2nnnn2C)n1 [Example 20]

EC50 (Phytophthora cinnamomi; [1]): < 2 µg/mL
EC50 (Pythium ultimum; [1]): < 2 µg/mL
SMILES: CCCOC(=O)Nc1cccc(COc2nc3ccccc3n2-c2nnnn2C)n1 [Example 21]

Second part, the molecule before the results:

SMILES: Cn1nnnc1-n1c(OCc2cccc(NC(=O)OC3CCCC3)n2)nc2ccccc21 [Example 12]
EC50 (Phytophthora cinnamomi; [1]): < 2 µg/mL
EC50 (Pythium ultimum; [1]): < 2 µg/mL

SMILES: Cn1nnnc1-n1c(OCc2cccc(NC(=O)OCc3ccccc3)n2)nc2ccccc21 [Example 14]
EC50 (Phytophthora cinnamomi; [1]): < 2 µg/mL
EC50 (Pythium ultimum; [1]): < 2 µg/mL

SMILES: Cn1nnnc1-n1c(OCc2cccc(NC(=O)Oc3ccccc3)n2)nc2ccccc21 [Example 15]
EC50 (Phytophthora cinnamomi): < 2 µg/mL
EC50 (Pythium ultimum): < 2 µg/mL

SMILES: CC(C)OC(=O)Nc1cccc(COc2nc3ccccc3n2-c2nnnn2C)n1 [Example 17]
EC50 (Phytophthora cinnamomi; [1]): < 2 µg/mL
EC50 (Pythium ultimum; [1]): < 2 µg/mL

SMILES: CC(C)COC(=O)Nc1cccc(COc2nc3ccccc3n2-c2nnnn2C)n1 [Example 18]
EC50 (Phytophthora cinnamomi; [1]): < 2 µg/mL
EC50 (Pythium ultimum; [1]): < 2 µg/mL

SMILES: C=CCOC(=O)Nc1cccc(COc2nc3ccccc3n2-c2nnnn2C)n1 [Example 19]
EC50 (Phytophthora cinnamomi; [1]): < 2 µg/mL
EC50 (Pythium ultimum; [1]): < 2 µg/mL

SMILES: Cn1nnnc1-n1c(OCc2cccc(NC(=O)CC3CCCC3)n2)nc2ccccc21 [Example 22, 2-Cyclopentyl-N-(6-(((1-(1-methyl-1H-tetrazol-5-yl)-1H-benzo[d]imidazol-2-yl)oxy)methyl)pyridin-2-yl)acetamide]
EC50 (Phytophthora cinnamomi; [1]): < 2 µg/mL
EC50 (Pythium ultimum; [1]): < 2 µg/mL

SMILES: Cn1nnnc1-n1c(OCc2cccc(NC(=O)C3CCCC3)n2)nc2ccccc21 [Example 23]
EC50 (Phytophthora cinnamomi; [1]): < 2 µg/mL
EC50 (Pythium ultimum; [1]): < 2 µg/mL

SMILES: Cn1nnnc1-n1c(OCc2cccc(NC(=O)COCc3ccccc3)n2)nc2ccccc21 [Example 24]
EC50 (Phytophthora cinnamomi; [1]): < 2 µg/mL
EC50 (Pythium ultimum; [1]): < 2 µg/mL

SMILES: Cn1nnnc1-n1c(OCc2cccc(NC(=O)COc3ccccc3)n2)nc2ccccc21 [Example 25]
EC50 (Phytophthora cinnamomi; [1]): < 2 µg/mL
EC50 (Pythium ultimum; [1]): < 2 µg/mL
